Assay results from the supplement of paper PMC11061612.

Columns and labels:
[1] = system: NCI-H2141 (Small Cell Lung Carcinoma); experiment: Bliss excess, mean over the matrix (fraction); higher = more synergy
In short: (§1)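 Bliss excess equals the observed combination effect minus the expected value EA + EB − EA·EB, where EA and EB are the effects of each agent alone. Combination Emax is the second-highest inhibition within the matrix. Inhibition was scaled from CellTiter-Glo 2.0 luminescence, with 0 set by vehicle wells and 1 by blank wells, after 72 hours of two-drug dosing of cells plated in 1536-well plates.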

[2] = system: OS-RC-2 (Kidney Carcinoma); experiment: as above
In short: as §1

[3] = system: PANC-10-05 (Pancreatic Carcinoma); experiment: as above
In short: as §1

[4] = system: CAL-29 (Bladder Carcinoma); experiment: combination Emax (second highest fraction inhibited in the dose matrix, 72 h); higher = more inhibition; extreme values may be limits of the assay
In short: as §1

[5] = system: CCK-81 (Colorectal Carcinoma); experiment: as above
In short: as §1

[6] = system: COLO-320-HSR (Colorectal Carcinoma); experiment: as above
In short: as §1

[7] = system: COLO-824 (Breast Carcinoma); experiment: as above
In short: as §1

[8] = system: COR-L311 (Small Cell Lung Carcinoma); experiment: as above
In short: as §1

FU97 (Gastric Carcinoma) = experiment: as above
In short: as §1

IGR-37 (Melanoma) = experiment: as above
In short: as §1

[9] = system: KARPAS-422 (B-Cell Non-Hodgkin's Lymphoma); experiment: as above
In short: as §1

LN-405 (Glioblastoma) = experiment: as above
In short: as §1

[10] = system: MDST8 (Colorectal Carcinoma); experiment: as above
In short: as §1

[11] = system: NCI-H1581 (Non-Small Cell Lung Carcinoma); experiment: as above
In short: as §1

[12] = system: NCI-H1693 (Lung Adenocarcinoma); experiment: as above
In short: as §1

[13] = system: NCI-H2066 (Squamous Cell Lung Carcinoma); experiment: as above
In short: as §1

PA-1 (Ovarian Carcinoma) = experiment: as above
In short: as §1

[14] = system: SISO (Cervical Carcinoma); experiment: as above
In short: as §1

[15] = system: TT (Thyroid Gland Carcinoma); experiment: as above
In short: as §1

[16] = system: VCaP (Prostate Carcinoma); experiment: as above
In short: as §1

CC1(C)CCC(CN2CCN(c3ccc(C(=O)NS(=O)(=O)c4ccc(NCC5CCOCC5)c([N+](=O)[O-])c4)c(Oc4cnc5[nH]ccc5c4)c3)CC2)=C(c2ccc(Cl)cc2)C1 [Venetoclax] + CCN(CCO)CCCOc1ccc2c(Nc3cc(CC(=O)Nc4cccc(F)c4)[nH]n3)ncnc2c1 [AZD2811] (first compound max 1 µM, 7x7, partner max 1 µM)
Bliss excess [1]: 0.0609 | Bliss excess [2]: -0.0484 | Bliss excess [3]: -0.0454 | combination Emax [4]: 0.264 | combination Emax [5]: 0.199 | combination Emax [6]: 0.156 | combination Emax [7]: 1 | combination Emax [8]: 0.927 | combination Emax (FU97 (Gastric Carcinoma)): 0.413 | combination Emax (IGR-37 (Melanoma)): 0.537 | combination Emax [9]: 0.922 | combination Emax (LN-405 (Glioblastoma)): 0.276 | combination Emax [10]: 0.306 | combination Emax [11]: 0.266 | combination Emax [12]: 0.182 | combination Emax [13]: 0.226 | combination Emax (PA-1 (Ovarian Carcinoma)): 0.527 | combination Emax [14]: 0.231 | combination Emax [15]: 0.652 | combination Emax [16]: 0.226

COc1cccc(OCCCN)c1-c1cc(Nc2cnc(C#N)cn2)n[nH]1 [Prexasertib] + CCc1c2c(nc3ccc(O)cc13)-c1cc3c(c(=O)n1C2)COC(=O)[C@]3(O)CC [SN-38] (first compound max 1 µM, 7x7, partner max 0.3 µM)
Bliss excess [1]: 0.0455 | Bliss excess [2]: -0.0392 | Bliss excess [3]: -0.0372 | combination Emax [4]: 0.98 | combination Emax [5]: 0.835 | combination Emax [6]: 0.838 | combination Emax [7]: 1 | combination Emax [8]: 1 | combination Emax (FU97 (Gastric Carcinoma)): 0.423 | combination Emax (IGR-37 (Melanoma)): 0.942 | combination Emax [9]: 1 | combination Emax (LN-405 (Glioblastoma)): 0.669 | combination Emax [10]: 0.94 | combination Emax [11]: 0.897 | combination Emax [12]: 0.925 | combination Emax [13]: 0.5 | combination Emax (PA-1 (Ovarian Carcinoma)): 0.91 | combination Emax [14]: 0.972 | combination Emax [15]: 0.916 | combination Emax [16]: 0.748

Cc1c2c(nn1C)CSCc1cc(n(C)n1)CSc1cc(c3ccccc3c1)OCCCc1c(C(=O)O)n(C)c3c-2c(Cl)ccc13 [AZD5991] + C[C@@H](Nc1cc(F)cc(F)c1)c1cc(C(=O)N(C)C)cc2c(=O)cc(N3CCOCC3)oc12 [AZD8186] (first compound max 1 µM, 7x7, partner max 3 µM)
Bliss excess [1]: 0.0257 | Bliss excess [2]: -0.0226 | Bliss excess [3]: -0.0473 | combination Emax [4]: 0.421 | combination Emax [5]: 0.899 | combination Emax [6]: 0.907 | combination Emax [7]: 0.441 | combination Emax [8]: 0.508 | combination Emax (FU97 (Gastric Carcinoma)): 0.445 | combination Emax (IGR-37 (Melanoma)): 0.325 | combination Emax [9]: 0.94 | combination Emax (LN-405 (Glioblastoma)): 0.572 | combination Emax [10]: 0.265 | combination Emax [11]: 0.991 | combination Emax [12]: 0.236 | combination Emax [13]: 0.343 | combination Emax (PA-1 (Ovarian Carcinoma)): 0.964 | combination Emax [14]: 0.123 | combination Emax [15]: 0.394 | combination Emax [16]: 0.935

CCN(CCO)CCCOc1ccc2c(Nc3cc(CC(=O)Nc4cccc(F)c4)[nH]n3)ncnc2c1 [AZD2811] + O=C(c1cc(Cc2n[nH]c(=O)c3ccccc23)ccc1F)N1CCN(C(=O)C2CC2)CC1 [Olaparib] (first compound max 1 µM, 7x7, partner max 10 µM)
Bliss excess [1]: -0.0557 | Bliss excess [2]: -0.0261 | Bliss excess [3]: -0.0468 | combination Emax [4]: 0.288 | combination Emax [5]: 0.254 | combination Emax [6]: 0.0695 | combination Emax [7]: 0.797 | combination Emax [8]: 0.673 | combination Emax (FU97 (Gastric Carcinoma)): 0.332 | combination Emax (IGR-37 (Melanoma)): 0.0609 | combination Emax [9]: 0.375 | combination Emax (LN-405 (Glioblastoma)): 0.192 | combination Emax [10]: 0.338 | combination Emax [11]: 0.344 | combination Emax [12]: 0.236 | combination Emax [13]: 0.214 | combination Emax (PA-1 (Ovarian Carcinoma)): 0.545 | combination Emax [14]: 0.454 | combination Emax [15]: 0.458 | combination Emax [16]: 0.224

COc1cc2c(cc1OCCCCCOc1cc3c(cc1OC)C(=O)N1C=C(C)C[C@H]1C=N3)N=C[C@@H]1CC(C)=CN1C2=O [SG3199] + O=C(c1cc(Cc2n[nH]c(=O)c3ccccc23)ccc1F)N1CCN(C(=O)C2CC2)CC1 [Olaparib] (first compound max 0.001 µM, 7x7, partner max 10 µM)
Bliss excess [1]: -0.0682 | Bliss excess [2]: -0.0484 | Bliss excess [3]: -0.0598 | combination Emax [4]: 0.0858 | combination Emax [5]: 0.184 | combination Emax [6]: 0.061 | combination Emax [7]: 0.147 | combination Emax [8]: 0.515 | combination Emax (FU97 (Gastric Carcinoma)): 0.156 | combination Emax (IGR-37 (Melanoma)): 0.0632 | combination Emax [9]: 0.258 | combination Emax (LN-405 (Glioblastoma)): 0.301 | combination Emax [10]: 0.138 | combination Emax [11]: 0.136 | combination Emax [12]: 0.086 | combination Emax [13]: 0.108 | combination Emax (PA-1 (Ovarian Carcinoma)): 0.324 | combination Emax [14]: 0.226 | combination Emax [15]: 0.187 | combination Emax [16]: 0.0785

COc1cccc(OCCCN)c1-c1cc(Nc2cnc(C#N)cn2)n[nH]1 [Prexasertib] + CN(C)CCCOc1ccc(-c2ccc3ncc4c(c3c2)n(C2CCOCC2)c(=O)n4C)cn1 [AZD0156] (first compound max 1 µM, 7x7, partner max 1 µM)
Bliss excess [1]: 0.009 | Bliss excess [2]: -0.0393 | Bliss excess [3]: -0.0435 | combination Emax [4]: 0.836 | combination Emax [5]: 0.927 | combination Emax [6]: 0.691 | combination Emax [7]: 0.785 | combination Emax [8]: 0.77 | combination Emax (FU97 (Gastric Carcinoma)): 0.386 | combination Emax (IGR-37 (Melanoma)): 0.912 | combination Emax [9]: 0.904 | combination Emax (LN-405 (Glioblastoma)): 0.516 | combination Emax [10]: 0.957 | combination Emax [11]: 0.284 | combination Emax [12]: 0.398 | combination Emax [13]: 0.402 | combination Emax (PA-1 (Ovarian Carcinoma)): 0.725 | combination Emax [14]: 0.745 | combination Emax [15]: 0.676 | combination Emax [16]: 0.741
